What was measured:
CMPK2 [1] = target: T1, CMPK2 (Homo sapiens, UniProt Q5EBM0); experiment: CMPK2 kinase activity assay (ADP-GLO); type: biochemical; details: ligand concentration 10 μM, luminescence; for inhibition at 10 µM: read-out: CMPK2 inhibition
T1 sequence (Q5EBM0 22-449): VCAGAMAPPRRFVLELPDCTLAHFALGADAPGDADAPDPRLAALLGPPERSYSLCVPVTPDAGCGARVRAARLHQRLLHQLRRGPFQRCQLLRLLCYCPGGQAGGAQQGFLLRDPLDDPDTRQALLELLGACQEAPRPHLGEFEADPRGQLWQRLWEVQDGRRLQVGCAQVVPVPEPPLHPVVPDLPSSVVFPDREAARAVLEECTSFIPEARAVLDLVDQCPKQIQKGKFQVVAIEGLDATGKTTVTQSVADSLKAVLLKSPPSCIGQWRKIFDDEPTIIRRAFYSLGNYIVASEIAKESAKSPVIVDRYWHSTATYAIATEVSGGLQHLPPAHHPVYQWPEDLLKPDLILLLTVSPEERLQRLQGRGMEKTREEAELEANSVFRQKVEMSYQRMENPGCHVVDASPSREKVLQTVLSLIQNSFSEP
Procedure: The range of concentrations used to investigate the effect of small‐molecule ligands on CMPK2 activity was 0.1–150 μM. Each data point contains three biological replicates.
CMPK2 activity was measured by the ADP‐GLO kinase assay according to the guidelines specified in the manufacturer's instructions. In the activity assay, the amount of ADP formed in the CMPK2 reaction was equal to the ATP consumption and proportional to the increase in luminescence generated in the luciferase reaction, which is the experimental principle shown in Figure 1I.

CMPK2 [2] = target: T1, CMPK2; experiment: Ultrafiltration-affinity mass spectrometry screening (FC, CMPK2 vs BSA); type: binding; parameters: the N‐terminus was truncated by 22 amino acids; 6xHis (C); made in house; host or cells: FreeStyle 293-F cells (pTT5 vector); details: ratio of MS response CMPK2 vs BSA; for FC Negative: negative ion mode; for FC Positive: positive ion mode
Procedure: The purified kinase CMPK2 was incubated with the six cocktails for 30 min at 37°C in a suitable buffer solution. In the compound cocktail, each compound concentration was 1 μM, and the concentration of the kinase CMPK2 was set at 5 μM. Each of the above incubation solutions was added to a 0.5 mL 10 kDa ultrafiltration tube (Amicon μltra‐0.5 10K Centrifugal Filter Devices, Millipore), and four experimental replicates were conducted for each CMPK2 and BSA pair. The 10 kDa ultrafiltration tube was centrifuged with the incubation solution at 13 000 × g for 20 min at 4°C. Centrifugation was stopped when the solution volume was approximately 100 μL, and then the mixture was washed five times with cold ammonium acetate (150 mM, pH 7.5). For affinity selection, 100 μL of the mixture was transferred after centrifugation and rinsed into a new eppendorf tube. […] The protein precipitate was discarded and the liquid was concentrated with a N2 stream. The residue was re‐dissolved in 50% methanol before injection. BSA samples were processed in a manner parallel to that of CMPK2 samples.
Sample measurement was detected by using an UHPLC instrument (Shimadzu) combined with a Triple TOF 5600^+ MS (SCIEX). Chromatographic separation was conducted with an Acquity UPLC BEH C18 column (1.7 μm, 2.1 × 100 mm, Waters) at a temperature maintained at 40°C and a flow rate of 0.3 mL/min, with mobile phases of water–0.1% formic acid (A) and acetonitrile (B). The linear gradient elution profile was as follows: 0−2 min, 5% B; 2−12 min, 5−30% B; 12−25 min, 30−90% B; 25−30 min, 90% B; and re‐equilibration for 5 min. Subsequently, the gradient was recovered to the initial conditions at the final 1 min. Whether it was a test sample or a quality control (QC) sample, each injection volume was 5 μL.
Briefly, the chromatographic peaks of each bound ligand were extracted using PeakView with identification criteria of precise mass measurement deviation and retention time tolerance of 5 ppm and 0.1 min, respectively. The MS response of each ligand was represented with the integrated peak area extracted by the corresponding extract ion chromatogram. The effective hits were selected on the basis of fold change (FC) value ≥ 2, p value < .05 and cyclic voltammetry (CV) ≤ 30% and were identified as candidate ligands of CMPK2. By extracting the m/z of individual standards from the acquired MS/MS spectrum, the decimal point of RT was used to distinguish the ambiguous compound peaks in the cocktails.
The experimental samples were injected into a UHPLC‐Q‐TOF‐MS system. First, total ion chromatograms (TIC) reflected the general overview of all samples (Supporting Information Figure S2A). […] Among the groups, each sample with a CV more than 30% was considered an abnormal sample and was not considered in the subsequent statistical analysis. In addition, the p value of each sample between the groups was calculated by MetaboAnalyst 5.0, and the significance of differences was determined. In the ultrafiltration‐affinity mass spectrometry profiling, we calculated FC, which is defined as the ratio of the MS response between the compound detected in the CMPK2 and BSA incubation system (Supporting Information Figure S2C,D). […] To select small‐molecule ligands with strong affinity, we determined the screening criteria to be FC ≥ 2. Affinity MS analysis generated a set of raw data, and the compounds that met the pre‐judgment criteria (FC ≥ 2, p < .05) were selected as compound hits (Supporting Information Figure S2).

| inhibition at 10 µM (CMPK2 [1]) | FC Positive (CMPK2 [2]) | FC value (CMPK2 [2]; Figure S3A) | SMILES | CMPK2 inhibition (CMPK2 [1]) | FC Negative (CMPK2 [2]) |
| --- | --- | --- | --- | --- | --- |
|  |  |  | CC(C)=CCCC(C)(O)[C@H]1CC[C@]2(C)[C@@H]1[C@H](O)C[C@@H]1[C@@]3(C)CC[C@H](O)C(C)(C)[C@@H]3CC[C@]12C (stereo in doubt) [compound 368, Protopanaxadiol] | more than 50% | 3.70 |
| > 50% | 4.74 |  | O=c1c(O[C@@H]2O[C@H](CO)[C@H](O)[C@H](O)[C@H]2O)c(-c2ccc(O)c(O)c2)oc2cc(O)cc(O)c12 [compound 400, Hyperoside] |  | 6.41 |
| > 50% | 3.13 |  | COc1ccc2ccc(=O)oc2c1 [compound 792, 7-methoxy coumarin] |  |  |
|  | 1.17 | 1.9 | O=c1ccn([C@H]2C[C@H](O)[C@@H](COP(=O)(O)O)O2)c(=O)[nH]1 [dUMP, reference compound] |  |  |
